Laboratory results from PMC10289957 (Investigational New Drugs, 2023).
Read-outs that look alike come from different tables or passages of the source. Marks after values point to notes of the source that are not given here.

How the values were obtained:
preclinical models = test system: preclinical models; design: method as in PMID 29774094, PMID 33273059; settings: cited from earlier work
[1] = test system: human cancer xenograft models; settings: various human cancer xenograft models; cited from earlier work
[2] = human, in vivo
Experimental: (§1) Serial plasma samples were collected for PK analysis on days 1 and 4 of cycle 1 before the morning dose; at 1, 2, 4, 6, and between 8−12 h after the morning dose. Additional samples were taken before the morning dose and 1 and 4 h after the morning dose on days 1 and 4 of cycle 2 and days 1 and 4 of cycle 5. PK parameters were determined using standard noncompartmental methods with Phoenix WinNonlin v8.1 (Certara, Princeton, NJ). Area under the plasma concentration−time curve (AUC) was calculated using the linear up/log down trapezoidal rule.

advanced solid tumors = settings: MK-8353 300−400 mg twice daily, 3/15 patients; cited from earlier work
clinical = settings: human, in vivo, Observed median time of maximum plasma concentration, range over dose levels
Experimental: as §1

[3] = test system: patients with advanced solid tumors; settings: cited from earlier work
[4] = Plasma pharmacokinetics after oral administration of the combination (noncompartmental); settings: for AUC0−12 / AUC0−last / Cmax / tlast / tmax: plasma; for AUC0−12 / AUC0−last / Cmax: geometric mean (% geometric CV); for tlast / tmax: median (range)
Experimental: as §1

advanced cancers = test system: advanced cancers; design: method as in PMID 25385055; settings: selumetinib monotherapy, patients with advanced cancers; cited from earlier work
patients = test system: patients; design: method as in PMID 30681641; settings: cited from earlier work
[5] = MK-8353 400 mg twice daily (MTD)
[6] = MK-8353 400 mg twice daily, n = 7
[7] = MK-8353 800 mg twice daily, 6 patients
[8] = cycle 1 Day 1, MK-8353 50 mg + selumetinib 25 mg oral BID
[9] = cycle 1 Day 1, MK-8353 100 mg + selumetinib 50 mg oral BID
[10] = cycle 1 Day 1, MK-8353 150 mg + selumetinib 75 mg oral BID
[11] = cycle 1 Day 4, MK-8353 50 mg + selumetinib 25 mg oral BID
[12] = cycle 1 Day 4, MK-8353 100 mg + selumetinib 50 mg oral BID
[13] = cycle 1 Day 4, MK-8353 150 mg + selumetinib 75 mg oral BID

Cc1cccc(CN2C(=O)c3cc(-c4nc(Nc5ccnn5C)ncc4C)cn3C[C@@H]2C)n1 [AZ6197]
Antitumor activity of ERK inhibitor plus selumetinib versus each agent alone (preclinical models): greater antitumor activity versus each agent alone

COC[C@H]1Cn2cc(-c3nc(Nc4ccnn4C)ncc3C)nc2C(=O)N1Cc1ccc(F)c(F)c1 [AZD0364]
Antitumor activity of ERK inhibitor plus selumetinib versus each agent alone (preclinical models): greater antitumor activity versus each agent alone

CS[C@@]1(C(=O)Nc2ccc3[nH]nc(-c4ccc(OC(C)C)nc4)c3c2)CCN(CC(=O)N2CC=C(c3ccc(-c4ncn(C)n4)cc3)CC2)C1 [MK-8353]
Antitumor activity [1]: Antitumor activity of MK-8353 was demonstrated | Accumulation at steady state [2]: ≤ 2 fold | Patients with a partial response (advanced solid tumors): 20% | tmax (clinical; cycle 1, all dose levels): 1.97 to 2.05 h | Eye disorders [3, 5]: no eye disorders occurred | Macular rash [3, 5]: 1 n | Maculopapular rash [3, 5]: 3 n | Pruritus [3, 5]: 1 n | Urticaria [3, 5]: 1 n | Diarrhea [3, 6]: 2 n | Dyspepsia [3, 6]: 2 n | Nausea [3, 6]: 4 n | Vomiting [3, 6]: 2 n | Safety and tolerability ([3]; MK-8353 400 mg twice daily): safe and well tolerated | Blurred vision [3, 7]: 2 n | Visual impairment [3, 7]: 3 n | Vitreous floaters [3, 7]: 1 n | MTD of MK-8353 monotherapy [3]: 400 mg twice daily

O=C(NOCCO)c1cc2[nH]cnc2c(F)c1Nc1ccc(Br)cc1Cl [desmethyl selumetinib]
Geometric mean minimum plasma concentration (Ctrough) ([4]; from lowest to highest dose): 8 to 26 nM | AUC0−12 [4, 8]: 0.161 (52.4) h∙µmol/L | AUC0−last [4, 8]: 0.144 (47.7) h∙µmol/L | Cmax [4, 8]: 43.7 nM | tlast [4, 8]: 8.02 (7.83–8.07) h | tmax [4, 8]: 1.88 (0.92–2.05) h | AUC0−12 [4, 9]: 0.344 (73.5)^l h∙µmol/L | AUC0−last [4, 9]: 0.261 (118.6) h∙µmol/L | Cmax [4, 9]: 93.5 nM | tlast [4, 9]: 8.00 (3.92–11.33) h | tmax [4, 9]: 1.02 (0.88–2.08) h | AUC0−12 [4, 10]: 0.690 (56.3)^j h∙µmol/L | AUC0−last [4, 10]: 0.547 (61.3) h∙µmol/L | Cmax [4, 10]: 158 nM | tlast [4, 10]: 8.00 (7.83–8.37) h | tmax [4, 10]: 1.92 (0.83–4.00) h | AUC0−12 [4, 11]: 0.230 (63.5) h∙µmol/L | AUC0−last [4, 11]: 0.202 (60.5) h∙µmol/L | Cmax [4, 11]: 56.3 nM | tlast [4, 11]: 8.05 (7.97–8.08) h | tmax [4, 11]: 1.88 (1.87–2.00) h | AUC0−12 [4, 12]: 0.386 (49.6)^k h∙µmol/L | AUC0−last [4, 12]: 0.267 (102.1) h∙µmol/L | Cmax [4, 12]: 72.4 nM | tlast [4, 12]: 8.00 (5.83–8.33) h | tmax [4, 12]: 1.96 (0.95–3.97) h | AUC0−12 [4, 13]: 0.681 (35.7)^k h∙µmol/L | AUC0−last [4, 13]: 0.486 (87.7)^f h∙µmol/L | Cmax [4, 13]: 97.7 nM | tlast [4, 13]: 8.00 (0.00–8.05)^h | tmax [4, 13]: 1.07 (0.00–5.92)^h | Accumulation at steady state ([4]; twice daily dosing): ≤ 2 fold

Cn1cnc2c(F)c(Nc3ccc(Br)cc3Cl)c(C(=O)NOCCO)cc21 [selumetinib]
Objective response rates (advanced cancers): up to 15% | Rates of treatment-related eye disorders (patients; selumetinib combination therapy with other agents (chemotherapies, targeted therapies)): up to 40% | Rates of treatment-related eye disorders (patients; selumetinib monotherapy, previous studies): 10−20% | Accumulation at steady state [2]: ≤ 2 fold | Geometric mean minimum plasma concentration (Ctrough) [2]: 0.101−0.456 µmol/L | Time of Cmax after dosing [2]: ≤ 2 h | tmax (clinical): 1 to 1.96 h
